Reference: publication PMC10227131 (Pharmacological Reports, 2023)
Where a name gives a salt, the structure may show the parent alone. Read-outs that look alike come from different tables or passages of the source. Square brackets hold non-standard residues; d marks the D form. Peptide text beside a SMILES is read from it. 1Nal = N[C@@H](Cc1cccc2ccccc12)C(=O)O; Dmt = Cc1cc(O)cc(C)c1C[C@H](N)C(=O)O

What was measured:
[1] = test system: mice; details: sc, ref [27]; cited from earlier work
[2] = test system: male Sprague–Dawley rats; details: cited from earlier work; for Antinociception, warm water tail flick test: icv, male Sprague–Dawley rats, ref Imam et al. [19]
[3] = test system: DOP receptor; details: inhibition of forskolin-stimulated cAMP formation, HEK cells stably expressing DOP receptor, cited from earlier work
[4] = test system: male Sprague–Dawley rats; details: cited from earlier work
[5] = test system: male Sprague–Dawley rats; details: cited from earlier work; remark: listed apart in the source
[6] = test system: male Sprague–Dawley rats; details: cited from earlier work; remark: listed apart in the source
[7] = test system: MOP receptor; details: inhibition of forskolin-stimulated cAMP formation, HEK cells stably expressing MOP receptor; ref Cai et al. [18]; cited from earlier work
[8] = test system: KOP receptor; details: inhibition of forskolin-stimulated cAMP formation, HEK cells stably expressing KOP receptor; ref Cai et al. [18]; cited from earlier work
[9] = test system: male Sprague–Dawley rats; test: Warm-water tail flick test (antinociception), icv dosing; format: in vivo, rat; details: for Mean (± SEM) peak tail flick latency: baseline latency 2.0–3.5 s; for Mean (± SEM) ΔLatency-AUC: vehicle 0.8 (± 0.3) s.h
Method: To assess a role for opioid receptors in mediating antinociception, rats were dosed with naloxone (10 mg/kg; sc) 10 min prior icv dosing with CYX-5 at the highest dose tolerated (20 nmol).
(§1) Data are presented as mean ± standard error of mean (SEM). One-way analysis of variance was used for analysing the following data: ΔLatency-AUC of warm water tail flick data (Fig. 2B, D); % Small intestinal transit of charcoal meal data and % change of transit relative to vehicle (Fig. 3A, B); AUC of % rats with diarrhoea (% of vehicle control) (Fig. 4B), Cumulative stool weight difference from vehicle (4 h) (Fig. 4D); ΔMV-AUC, ΔRF-AUC and ΔTv-AUC (Fig. 6A–F). Two-way analysis of variance was used for the following data: MV, RF and Tv data for 2 h WPB test (Fig. 5A–F). The analyses were implemented in GraphPad Prism v9.0.0 (GraphPad Software, Inc., La Jolla, CA USA). Dunnett's multiple comparison test was used for post hoc analysis of all the data. For individual animals in the tail flick test, the increase in tail flick latency above baseline (ΔLatency) was calculated for every assessment time point, and the areas under the ΔLatency versus time curve (AUC) values were estimated using trapezoidal integration as using GraphPad™ Prism v9.0.0. For the castor oil-induced diarrhoea test, the percentage of rats with diarrhoea (%AD) was determined for each time point and plotted against time for individual animals. The areas under the curve (%AD-AUC) values were calculated using GraphPad™ Prism v9.0.0. A value of p ≤ 0.05 was the statistical significance criterion. For one-way ANOVA, F values are expressed as Fdf of treatment, residual. For two-way ANOVA, F values are expressed as Fdf of treatment, time, interaction/residual.

[10] = test system: male Sprague–Dawley rats; test: GI motility, charcoal meal test, icv dosing; format: in vivo, rat; details: for Mean (± SEM) % small intestinal transit (%SIT): n = 6, vehicle 77.3 (± 1.9) %
Method: One hour later, the rats were euthanised and the intestine was collected for measurement of the following: (i) the distance from the pylorus to the front edge of the charcoal meal; (ii) the distance between the pylorus and the distal edge of the ileum. The intestinal transit index was determined by dividing measurement (i) by measurement (ii).

[11] = test system: male Sprague–Dawley rats; test: Inhibition of castor oil-induced diarrhoea, icv dosing; format: in vivo, rat; details: for Mean (± SEM) %AUC of % rats with diarrhoea (% of vehicle control): 8 h, vehicle set at 100%; for Cumulative stool weight-area under the curve (CSW-AUC): at 4 h, vehicle 18.3 (± 1.1) g.h
Method: After an overnight fast (16 h), the pre-dosing stool consistency of individual rats was recorded. […] The weight and consistency of faeces were recorded pre-dose and hourly for 8 h post-dosing for individual animals. The scoring criteria for faeces consistency were as follows: 0 = normal faeces, 1 = well-shaped wet faeces, 2 = shapeless faeces, 3 = shapeless faeces with large amounts of liquid. A score of ≥ 2 for both weight and consistency was defined as diarrhoea.
as §1

[12] = test system: male Sprague–Dawley rats; test: Respiratory function by whole body plethysmography, icv dosing; format: in vivo, rat
Method: After acclimatisation for 30–60 min, respiratory parameters were recorded for 45 min pre-dosing (three 15 min cycles) and for 2 h post-dosing (eight 15 min cycles). In each cycle, rats breathed normal air for 1 min, followed by a hypercapnic gas mixture (8% CO2, 21% O2 and 71% N2) for 5 min and then a 9 min recovery period breathing normal air. Respiratory parameters recorded by the blinded tester (M.Z.I.) included minute ventilation (MV), respiratory frequency (RF) and tidal volume (Tv) using the BioSystem XA software. The baseline was calculated as the mean difference in MV (ΔMV), RF (ΔRF) and Tv (ΔTv) during the pre-dosing exposure to normal air and the hypercapnic gas mixture.

[13] = molecular target: DOP receptor; details: mean ± SEM; ref [18]; cited from earlier work
Description: (§2) By comparison, CYX-5 is a truncated analogue of EM-2 (H-Dmt-Pro-Nal-NH2; Nal: 3-(1-naphthyl)-L-alanine) (Fig. 1). In vitro, CYX-5, like CYX-6, was a G-protein biassed ligand at MOP, DOP and KOP receptors. […] In the forskolin-stimulated cAMP assay in HEK-cells expressing murine MOP, D ...

[14] = molecular target: MOP receptor; details: mean ± SEM; ref [18]; cited from earlier work
Description: as §2

[15] = test system: MOP receptor; details: guinea-pig small intestinal myenteric plexus muscle preparation; ref [18]; cited from earlier work
[16] = test system: MOP receptor; details: in vitro; ref [18]; cited from earlier work
[17] = test system: DOP receptor; details: in vitro; ref [18]; cited from earlier work
[18] = test system: KOP receptor; details: in vitro; ref [18]; cited from earlier work
[19] = Metabolic stability using rat liver microsomes
[20] = test system: male Sprague–Dawley rats; test: Tolerability / neuro-excitatory clinical signs after icv dosing
[21] = icv 100 nmol, n = 6, biphasic profile, data re-used, ref [19]
[22] = icv 100 nmol, data re-used, ref [19]
[23] = icv, male Sprague–Dawley rats, ref Imam et al. [19], Kuo et al. [23]
[24] = icv, male Sprague–Dawley rats, √/X not defined

CN1CC[C@]23c4c5ccc(O)c4O[C@H]2C(=O)CC[C@@]3(OCCCc2ccccc2)[C@H]1C5 [14-O-phenylpropyloxymorphone]
Fold less potent for inhibition of GI transit compared with antinociception [1]: 2.4 fold

CN1CC[C@]23c4c5ccc(O)c4O[C@H]2[C@@H](O)C=C[C@H]3[C@H]1C5 [morphine, morphine hydrochloride]
First antinociceptive peak tail flick latency, mean (± SEM) [2, 21]: 8.9 (± 0.5) s | Second antinociceptive peak tail flick latency, mean (± SEM) [2, 21]: 10.0 (± 0.0) s | Antinociception (tail flick), in words [2, 22]: pronounced antinociception | Mean time to first peak effect (tail flick) [2, 22]: 0.75 h | Mean time to second peak effect (tail flick) [2, 22]: 1.5 h | Antinociception, warm water tail flick test ([2]; Kuo et al. [23]): √^b,d | In vitro agonist or antagonist activity, DOP receptor ([3]; ref Kuo et al. [36]): Agonist^c | Mean (± SEM) % small intestinal transit (%SIT) ([4]; icv 100 nmol, n = 12, data re-used, ref [19]): 22.0 (± 3.4) % | Constipation, inhibition of GI motility [4, 23]: √^b,d | Time by which animals developed diarrhoea ([5]; icv 100 nmol, oral castor oil, data re-used, ref [19]): 7 h | Constipation, inhibition of castor oil-induced diarrhoea [5, 23]: √^b,d | Effect on respiratory frequency ([6]; icv 100 nmol, n = 6, hypercapnic gas mixture, relative to vehicle, data re-used, ref [19]): reduced respiratory frequency significantly | Effect on minute ventilation ([6]; icv 100 nmol, n = 6, hypercapnic gas mixture, time of peak effect, data re-used, ref [19]): reduced minute ventilation | Respiratory function, depression of minute ventilation ([6]; icv, hypercapnic conditions, awake rats, ref Imam et al. [19], Kuo et al. [23]): √^b,d

H-Dmt-Pro-Tmp-Tmp-NH2 [CYX-6]
In vitro agonist or antagonist activity, MOP receptor [7]: Agonist^a | In vitro agonist or antagonist activity, KOP receptor [8]: Antagonist^a | Antinociception, warm water tail flick test [2]: √^b | In vitro agonist or antagonist activity, DOP receptor ([3]; ref Cai et al. [18]): Antagonist^a | Respiratory function, stimulation of minute ventilation ([6]; icv, hypercapnic conditions, awake rats, ref Imam et al. [19]): √^b

Cc1cc(O)cc(C)c1C[C@H](N)C(=O)N1CCC[C@H]1C(=O)N[C@@H](Cc1cccc2ccccc12)C(N)=O [CYX-5, H-Dmt-Pro-Nal-NH2] (H-[Dmt]-Pro-[1Nal]-NH2)
Mean (± SEM) peak tail flick latency ([9]; icv 3 nmol, n = 6, rats): 5.2 (± 0.6) s | Mean (± SEM) ΔLatency-AUC ([9]; icv 3 nmol, n = 6): 3.2 (± 0.9) s.h | Mean (± SEM) peak tail flick latency ([9]; icv 10 nmol, n = 6, rats): 4.0 (± 0.3) s | Mean (± SEM) ΔLatency-AUC ([9]; icv 10 nmol, n = 6): 2.1 (± 0.5) s.h | Antinociception (tail flick), in words ([9]; icv 20 nmol, highest dose tolerated): moderate antinociception | Mean (± SEM) peak tail flick latency ([9]; icv 20 nmol, n = 7, rats): 5.5 (± 0.5) s | Mean (± SEM) ΔLatency-AUC ([9]; icv 20 nmol, n = 7, significantly different from vehicle): 4.8 (± 0.6) s.h | Mean time to peak effect (tail flick) ([9]; icv 3, 10 and 20 nmol, post-dose): 1 h | Antinociception, warm water tail flick test [9, 24]: √ | Effect of naloxone pre-treatment on antinociception ([9]; naloxone 10 mg/kg sc 10 min prior to icv 20 nmol): completely attenuated | Mean (± SEM) % small intestinal transit (%SIT) ([10]; icv 3 nmol): 68.7 (± 2.7) % | Mean (± SEM) % small intestinal transit (%SIT) ([10]; icv 10 nmol): 64.8 (± 6.8) % | Mean (± SEM) % small intestinal transit (%SIT) ([10]; icv 20 nmol): 64.4 (± 3.4) % | Constipation, inhibition of GI motility [10, 24]: √ | Mean (± SEM) %AUC of % rats with diarrhoea (% of vehicle control) ([11]; icv 3 nmol, n = 7): 72.6 (± 10.8) %AD.h | Cumulative stool weight-area under the curve (CSW-AUC) ([11]; icv 3 nmol): 11.7 (± 1.5) g.h | Mean (± SEM) %AUC of % rats with diarrhoea (% of vehicle control) ([11]; icv 10 nmol, n = 6): 78.5 (± 7.6) %AD.h | Cumulative stool weight-area under the curve (CSW-AUC) ([11]; icv 10 nmol): 13.4 (± 4.1) g.h | Mean (± SEM) %AUC of % rats with diarrhoea (% of vehicle control) ([11]; icv 20 nmol, n = 6): 68.4 (± 2.6) %AD.h | Cumulative stool weight-area under the curve (CSW-AUC) ([11]; icv 20 nmol): 2.5 (± 0.9) g.h | Time to develop diarrhoea in all animals ([11]; icv 3, 10 and 20 nmol, oral castor oil 2.5 ml, vehicle 3 h): 5 h | Effect on minute ventilation ([12]; icv 20 nmol, n = 6, hypercapnic conditions (8% CO2), awake rats): significant stimulatory effect | Effect on tidal volume ([12]; icv 20 nmol, n = 6, hypercapnic gas mixture): significant increase | Effect on respiratory frequency ([12]; icv 20 nmol, n = 6, normal air and hypercapnic gas exposure): insignificant | Respiratory function, stimulation of minute ventilation ([12]; icv, hypercapnic conditions, awake freely moving rats, √/X not defined): √ | Ki [13]: 0.121 ± 0.0102 µM | Ki [14]: 0.0007 ± 8e-05 µM | In vitro agonist or antagonist activity, MOP receptor [7]: Agonist^a | In vitro agonist or antagonist activity, KOP receptor [8]: Agonist^a | MOP receptor agonism ex vivo [15]: potent MOP receptor agonism | In vitro agonist or antagonist activity, DOP receptor ([3]; ref Cai et al. [18]): Antagonist^a | Recruitment of β-arrestin2 at MOP receptor [16]: lack of recruitment | Recruitment of β-arrestin2 at DOP receptor [17]: lack of recruitment | Recruitment of β-arrestin2 at KOP receptor [18]: lack of recruitment | half-life [19]: 57.6 min | Duration of postural abnormalities (flattened torso, splayed legs, ataxia) ([20]; icv 20 nmol): up to 90 min | Rats with mild, intermittent, transient clinical signs of neuroexcitation ([20]; icv 20 nmol): ~ 50% | Maximum tolerated dose, icv ([20]; pilot study, rats): 20 nmol | Side effects at 30 nmol icv ([20]; preliminary experiment, icv 30 nmol, convulsions, barrel roll, wet-dog shakes, excessive alertness): pronounced neuro-excitatory side effects
